Assay results: patent publication US9994535B2, “Desferrithiocin polyether analogues” (University of Florida Research Foundation, Inc., priority 2005, dated 2018)

What was measured:
Type in all cases: in vivo
[1] = Iron clearing efficiency in iron-overloaded Cebus apella monkey model; details: primates, given either p.o. or s.c.
Method: Iron Chelators in a Cebus apella Monkey Model Studies were performed in the iron-overloaded monkey model with the compounds shown below: The protocol used can be found in Bergeron, R. J. et al., “Methoxylation of Desazadesferrithiocin Analogues: Enhanced Iron Clearing Efficiency,” J. Med. Chem. 46:1470-1477 (2003), the contents of which are incorporated herein by reference. Briefly, the monkeys were iron overloaded with iron dextran administered intravenously to result in an iron loading of about 500 mg per kg of body weight. At least 20 half-lives, 60 days, elapsed before the animals were used in experiments evaluating iron chelators. Fecal and urine samples were collected at 24 hour intervals beginning 4 days prior to the administration of an iron chelator and continued for 5 days after the chelator was administered. Iron concentrations in stool and urine were determined by flame atomic absorption spectroscometry. Iron chelator efficiency was calculated by dividing the net iron clearance [total iron excretion (stool plus urine) minus background] by the theoretical iron clearance and multiplying by 100. The theoretical clearance of the iron chelator was generated on the basis of a 2:1 ligand/iron complex.

[2] = Iron clearing efficiency in non-iron overloaded, bile duct cannulated rat model; details: for Efficiency (%) (iron clearing efficiency): 300 μmol/kg, 24 hour iron excretion, 2:1 ligand-iron complex
Method: Iron Clearing Efficiency of Iron Chelators in a Non-Iron Overloaded, Bile Duct Cannulated Rat Model
Studies were performed in the non-iron overloaded, bile duct cannulated rodent model with the compounds shown below.
Briefly, male Sprague-Dawley rats averaging 450 g were housed in Nalgene plastic metabolic cages during the experimental period and given free access to water. The animals were anesthetized using sodium pentobarbital (55 mg/kg) administered intraperitoneally. The bile duct was cannulated using 22-gauge polyethylene tubing. The cannula was inserted into the duct about 1 cm from the duodenum and tied snugly in place. After threading through the shoulder, the cannula was passed from the rat to the swivel inside a metal torque-transmitting tether, which was attached to a rodent jacket around the animal's chest. The cannula was directed from the rat to a Gilson microfraction collector (Middleton, Wis.) by a fluid swivel mounted above the metabolic cage. Three hour bile samples were continuously collected for a minimum of 24 hours up to 48 hours. However, the efficiency calculations are based on the 24 hour iron excretion. The efficiency of each chelator was calculated on the basis of a 2:1 ligand-iron complex. The efficiencies in the rodent model were calculated by subtracting the iron excretion of control animals from the iron excretion of treated animals. This number was then divided by the theoretical output; the result is expressed as a percentage (Bergeron, R. J., et al., J. Med Chem. 42:95-108 (1999) the entire contents of which are incorporated herein by reference). The urine sample was taken at 24 hours and handled as previously described in Bergeron, R. J., et al., J. Med. Chem. 34:2072-2078 (1991), the entire contents of which are incorporated herein by reference.

[3] = Tissue and plasma concentrations upon subcutaneous administration to rats; details: rat
Method: Tissue Distribution of a Polyether-Substituted (S)-4′-Hydroxydesazadesferrithiocin Analogue [(S)-4′-(HO)-DADFT-PE] Upon Subcutaneous Administration to Rats
A measurement was made assessing (S)-4′-(HO)-DADFT-PE and (S)-4′-(HO)-DADFT tissue and plasma concentrations upon subcutaneous administration at times from 2-8 h post dosing. The rats were given this compound subcutaneously at 300 μmol/kg. The tissue and plasma level were obtained as described in Bergeron et al. J Med Chem. 48:821-831 (2005), the entire contents of which are incorporated herein by reference.

COCCOCCOCCOc1ccc(C2=N[C@@](C)(C(=O)O)CS2)c(O)c1 [(S)-4′-(HO)-DADFT-PE, (S)-4,5-Dihydro-2-[2-hydroxy-4-[2-[2-(2-methoxyethoxy)ethoxy]ethoxy]phenyl]-4-methyl-4-thiazolecarboxylic Acid]
Iron clearing efficiency compared with (S)-4′-(HO)-DADFT [1]: at least as efficient as (S)-4′-(HO)-DADFT | Efficiency (%) (iron clearing efficiency) ([2]; p.o.): 6.6 ± 1.9% | Efficiency (%) (iron clearing efficiency) ([2]; s.c.): 8.7 ± 2.8% | Iron clearing efficiency compared with parent drug (S)-4-(HO)-DADFT ([2]; same micromole per kilogram dose): work better than the parent drug | Tissue distribution (where most is found) ([3]; sc): found in the liver, kidney and pancreas | Brain concentration of administered compound ([3]; sc 300 μmol/kg, 2 h): 0.5 ± 0.9 nmol/g wet wt | Brain concentration of administered compound ([3]; sc 300 μmol/kg, 4 h): 0.0 ± 0.0 nmol/g wet wt | Brain concentration of administered compound ([3]; sc 300 μmol/kg, 6 h): 0.0 ± 0.0 nmol/g wet wt | Brain concentration of administered compound ([3]; sc 300 μmol/kg, 8 h): 0.0 ± 0.0 nmol/g wet wt | Heart concentration of administered compound ([3]; sc 300 μmol/kg, 2 h): 9.2 ± 2.6 nmol/g wet wt | Heart concentration of administered compound ([3]; sc 300 μmol/kg, 4 h): 5.3 ± 1.4 nmol/g wet wt | Heart concentration of administered compound ([3]; sc 300 μmol/kg, 6 h): 0.0 ± 0.0 nmol/g wet wt | Heart concentration of administered compound ([3]; sc 300 μmol/kg, 8 h): 2.0 ± 1.7 nmol/g wet wt | Kidney concentration of administered compound ([3]; sc 300 μmol/kg, kidney, 2 h): 41.1 ± 3.0 nmol/g wet wt | Kidney concentration of administered compound ([3]; sc 300 μmol/kg, kidney, 4 h): 33.7 ± 13.5 nmol/g wet wt | Kidney concentration of administered compound ([3]; sc 300 μmol/kg, kidney, 6 h): 13.7 ± 2.1 nmol/g wet wt | Kidney concentration of administered compound ([3]; sc 300 μmol/kg, kidney, 8 h): 7.4 ± 2.1 nmol/g wet wt | Liver concentration of administered compound ([3]; sc 300 μmol/kg, 2 h): 131.6 ± 32.2 nmol/g wet wt | Liver concentration of administered compound ([3]; sc 300 μmol/kg, 4 h): 66.9 ± 12.4 nmol/g wet wt | Liver concentration of administered compound ([3]; sc 300 μmol/kg, 6 h): 34.3 ± 1.5 nmol/g wet wt | Liver concentration of administered compound ([3]; sc 300 μmol/kg, 8 h): 25.4 ± 4.6 nmol/g wet wt | Pancreas concentration of administered compound ([3]; sc 300 μmol/kg, 2 h): 29.6 ± 24.8 nmol/g wet wt | Pancreas concentration of administered compound ([3]; sc 300 μmol/kg, 4 h): 12.6 ± 5.2 nmol/g wet wt | Pancreas concentration of administered compound ([3]; sc 300 μmol/kg, 6 h): 4.6 ± 1.6 nmol/g wet wt | Pancreas concentration of administered compound ([3]; sc 300 μmol/kg, 8 h): 2.7 ± 2.6 nmol/g wet wt | concentration at 2 h ([3]; sc 300 μmol/kg, plasma, 2 h, read-out: Plasma concentration of administered compound): 16.2 ± 4.2 µM | concentration at 4 h ([3]; sc 300 μmol/kg, plasma, 4 h, read-out: Plasma concentration of administered compound): 5.3 ± 2.6 µM | concentration at 6 h ([3]; sc 300 μmol/kg, plasma, 6 h, read-out: Plasma concentration of administered compound): 1 ± 1 µM | concentration at 8 h ([3]; sc 300 μmol/kg, plasma, 8 h, read-out: Plasma concentration of administered compound): 0 nM | Metabolism back to (S)-4-(HO)DADFT ([3]; sc, any tissue): very little metabolism | Kidney level compared with (S)-4-(HO)-DADFT ([3]; sc, kidney, any time point): much less of the PE in the kidney
